Data from PubChem BioAssay AID248 (DTP/NCI, 2004).
Values joined by “and” are separate entries in the source; they are usually repeats but may differ in a detail not shown here. Equal entries are not always repeated. Inconclusive results and toxic doses are left out. Cut-off read from the data, not from the text of the source: active = T/C of 150% or more; inactive = T/C below 125%.

Tested on: L1210 leukemia ip in BDF1 mice, survival T/C
Assay: NCI In Vivo Anticancer Drug Screen. Data for tumor model L1210 Leukemia (intraperitoneal) in B6D2F1 (BDF1) mice
Conditions: endpoint: mean survival time, higher = longer survival
Outline: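 Tumor cells were implanted, animals were treated, and survival was followed. The result divides the treated measurement by the vehicle-control measurement.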

[1] = dose: 100.0 mg/kg/injection, schedule: Q01DX001 (ip), vehicle: saline
[2] = dose: 200.0 mg/kg/injection, schedule: Q01DX001 (ip), vehicle: saline
[3] = dose: 100.0 mg/kg/injection, schedule: Q01DX009 (ip), vehicle: Klucel (hydroxypropylcellulose) (HPC)
[4] = dose: 100.0 mg/kg/injection, schedule: Q04DX002 (ip), vehicle: Klucel (hydroxypropylcellulose) (HPC)
[5] = dose: 200.0 mg/kg/injection, schedule: Q01DX009 (ip), vehicle: Klucel (hydroxypropylcellulose) (HPC)
[6] = dose: 400.0 mg/kg/injection, schedule: Q01DX009 (ip), vehicle: Klucel (hydroxypropylcellulose) (HPC)
[7] = dose: 400.0 mg/kg/injection, schedule: Q04DX002 (ip), vehicle: Klucel (hydroxypropylcellulose) (HPC)
[8] = dose: 100.0 mg/kg/injection, schedule: Q04DX003 (ip), vehicle: Klucel (hydroxypropylcellulose) (HPC)
[9] = dose: 200.0 mg/kg/injection, schedule: Q04DX003 (ip), vehicle: Klucel (hydroxypropylcellulose) (HPC)
[10] = dose: 400.0 mg/kg/injection, schedule: Q04DX003 (ip), vehicle: Klucel (hydroxypropylcellulose) (HPC)
[11] = dose: 100.0 mg/kg/injection, schedule: Q01DX009 (ip), vehicle: saline with Tween-80
[12] = dose: 200.0 mg/kg/injection, schedule: Q04DX002 (ip), vehicle: Klucel (hydroxypropylcellulose) (HPC)

Measured: T/C

Cc1nc(-c2ccc(N=Cc3ccc(N(CCCl)CCCl)cc3)cc2)cs1
inactive: dose: 50.0 mg/kg/injection, schedule: Q01DX009 (ip), vehicle: saline 101 % of control | [1] 101 % of control | dose: 100.0 mg/kg/injection, schedule: Q01DX009 (ip), vehicle: saline 104 % of control | [2] 90 % of control | dose: 200.0 mg/kg/injection, schedule: Q01DX009 (ip), vehicle: saline 98 % of control | dose: 400.0 mg/kg/injection, schedule: Q01DX001 (ip), vehicle: saline 89 % of control | dose: 400.0 mg/kg/injection, schedule: Q01DX009 (ip), vehicle: saline 102 % of control

CN(Cc1ccccc1)C(=O)c1ccc(Cl)cc1
inactive: [3] 111 % of control | [4] 101 % of control | [5] 105 % of control | [6] 100 % of control | [7] 89 % of control

Cc1cc2oc(/C=C/C(=O)c3ccc([N+](=O)[O-])cc3)c(C)c2cc1C
inactive: [8] 97 % of control | [9] 90 % of control | [10] 100 % of control

CCOC(=O)C(CC)(OC(C)=O)C(=O)C(O)C1c2nc3ccccc3cc2CN1C(=O)CCOCc1ccccc1 (stereo not given)
inactive: dose: 10.0 mg/kg/injection, schedule: Q07DX002 (ip), vehicle: alcohol 99 % of control | dose: 20.0 mg/kg/injection, schedule: Q07DX002 (ip), vehicle: alcohol 101 % of control | dose: 40.0 mg/kg/injection, schedule: Q07DX002 (ip), vehicle: alcohol 106 % of control | dose: 80.0 mg/kg/injection, schedule: Q07DX002 (ip), vehicle: alcohol 94 % of control

NC(=O)c1cc(Cl)nc(Cl)n1
inactive: dose: 25.0 mg/kg/injection, schedule: Q01DX Z (ip), vehicle: methylcellulose (MC) 98 % of control | dose: 50.0 mg/kg/injection, schedule: Q01DX Z (ip), vehicle: methylcellulose (MC) 96 % of control

CC/C=C(CC)/C(CC)=C(/C#N)CC
inactive: dose: 100.0 mg/kg/injection, schedule: Q04DX003 (ip), vehicle: saline 108 % of control | dose: 200.0 mg/kg/injection, schedule: Q04DX003 (ip), vehicle: saline 93 % of control | dose: 400.0 mg/kg/injection, schedule: Q04DX003 (ip), vehicle: saline 98 % of control

CCCCOC1CCS(=O)(=O)C1 (stereo not given)
inactive: dose: 100.0 mg/kg/injection, schedule: Q04DX003 (ip), vehicle: other 101 % of control | dose: 200.0 mg/kg/injection, schedule: Q04DX003 (ip), vehicle: other 101 % of control | dose: 400.0 mg/kg/injection, schedule: Q04DX003 (ip), vehicle: other 94 % of control

COc1c(C)c(C)c(OC(C)=O)c(C)c1COC(C)=O
inactive: dose: 25.0 mg/kg/injection, schedule: Q01DX009 (ip), vehicle: saline with Tween-80 90 % of control | dose: 50.0 mg/kg/injection, schedule: Q01DX009 (ip), vehicle: saline with Tween-80 95 % of control | dose: 100.0 mg/kg/injection, schedule: Q01DX001 (ip), vehicle: saline with Tween-80 98 % of control | [11] 95 % of control and 98 % of control | dose: 200.0 mg/kg/injection, schedule: Q01DX001 (ip), vehicle: saline with Tween-80 93 % of control | dose: 400.0 mg/kg/injection, schedule: Q01DX001 (ip), vehicle: saline with Tween-80 109 % of control

CCOc1ccc(Cl)cc1
inactive: dose: 75.0 mg/kg/injection, schedule: Q01DX009 (ip), vehicle: Klucel (hydroxypropylcellulose) (HPC) 117 % of control | [11] 108 % of control | [4] 100 % of control | dose: 150.0 mg/kg/injection, schedule: Q01DX009 (ip), vehicle: Klucel (hydroxypropylcellulose) (HPC) 93 % of control | dose: 200.0 mg/kg/injection, schedule: Q01DX009 (ip), vehicle: saline with Tween-80 106 % of control | [12] 103 % of control | dose: 300.0 mg/kg/injection, schedule: Q01DX009 (ip), vehicle: Klucel (hydroxypropylcellulose) (HPC) 96 % of control | [7] 92 % of control

O=C1C(Br)(Br)CCCCC1(c1ccccc1)c1ccccc1
inactive: dose: 100.0 mg/kg/injection, schedule: Q04DX003 (ip), vehicle: saline with Tween-80 101 % of control | dose: 200.0 mg/kg/injection, schedule: Q04DX003 (ip), vehicle: saline with Tween-80 103 % of control | dose: 400.0 mg/kg/injection, schedule: Q04DX003 (ip), vehicle: saline with Tween-80 87 % of control

C=CCOc1c(Cl)c(Cl)c(Cl)c(Cl)c1Cl
inactive: dose: 100.0 mg/kg/injection, schedule: Q01DX009 (ip), vehicle: saline sonified 96 % of control | [8] 96 % of control | dose: 200.0 mg/kg/injection, schedule: Q01DX009 (ip), vehicle: saline sonified 91 % of control | [9] 96 % of control | dose: 400.0 mg/kg/injection, schedule: Q01DX009 (ip), vehicle: saline sonified 97 % of control | [10] 96 % of control

COc1cc(N)c(CC2c3cc(OC)c(OC)cc3CCN2C)cc1OC (stereo not given)
inactive: dose: 75.0 mg/kg/injection, schedule: Q01DX001 (ip), vehicle: carboxymethylcellulose (CMC) 95 % of control | dose: 150.0 mg/kg/injection, schedule: Q01DX001 (ip), vehicle: carboxymethylcellulose (CMC) 95 % of control

CC1(c2ccccc2)CCC(NN=C(N)N)=NC1 (stereo not given)
inactive: dose: 15.0 mg/kg/injection, schedule: Q01DX Z (ip), vehicle: methylcellulose (MC) 95 % of control | dose: 30.0 mg/kg/injection, schedule: Q01DX Z (oral), vehicle: methylcellulose (MC) 97 % of control | dose: 60.0 mg/kg/injection, schedule: Q01DX Z (ip), vehicle: methylcellulose (MC) 101 % of control | dose: 60.0 mg/kg/injection, schedule: Q01DX Z (oral), vehicle: methylcellulose (MC) 91 % of control | dose: 120.0 mg/kg/injection, schedule: Q01DX Z (ip), vehicle: methylcellulose (MC) 95 % of control | dose: 120.0 mg/kg/injection, schedule: Q01DX Z (oral), vehicle: methylcellulose (MC) 101 % of control | dose: 240.0 mg/kg/injection, schedule: Q01DX Z (ip), vehicle: methylcellulose (MC) 93 % of control | dose: 240.0 mg/kg/injection, schedule: Q01DX Z (oral), vehicle: methylcellulose (MC) 93 % of control | dose: 375.0 mg/kg/injection, schedule: Q01DX Z (oral), vehicle: methylcellulose (MC) 89 % of control | dose: 420.0 mg/kg/injection, schedule: Q01DX Z (ip), vehicle: methylcellulose (MC) 93 % of control | dose: 500.0 mg/kg/injection, schedule: Q01DX Z (oral), vehicle: methylcellulose (MC) 86 % of control | dose: 600.0 mg/kg/injection, schedule: Q01DX Z (ip), vehicle: methylcellulose (MC) 92 % of control | dose: 625.0 mg/kg/injection, schedule: Q01DX Z (oral), vehicle: methylcellulose (MC) 93 % of control

COC1CCC(/C(C#N)=C/c2ccco2)CC1 (stereo not given)
inactive: dose: 100.0 mg/kg/injection, schedule: Q04DX002 (ip), vehicle: saline with Tween-80 97 % of control and 89 % of control | dose: 200.0 mg/kg/injection, schedule: Q04DX002 (ip), vehicle: saline with Tween-80 94 % of control and 99 % of control | dose: 800.0 mg/kg/injection, schedule: Q04DX002 (ip), vehicle: saline with Tween-80 103 % of control

CC(=O)Nc1ccc(C(C)(C)c2ccc([N+](=O)[O-])cc2)cc1[N+](=O)[O-]
inactive: dose: 50.0 mg/kg/injection, schedule: Q01DX001 (ip), vehicle: other 98 % of control | dose: 100.0 mg/kg/injection, schedule: Q01DX001 (ip), vehicle: other 104 % of control | dose: 400.0 mg/kg/injection, schedule: Q01DX001 (ip), vehicle: other 93 % of control

COc1ccc(NC(=O)Oc2ccccc2C(N)=O)c(Cl)c1
inactive: [4] 96 % of control | [12] 104 % of control

CC(=O)c1c(C)cc(C)nc1C
inactive: [1] 96 % of control | [2] 102 % of control

COc1ccc(OC)c(CC(Cl)(C#N)C#N)c1
inactive: dose: 12.0 mg/kg/injection, schedule: Q01DX009 (ip), vehicle: Klucel (hydroxypropylcellulose) (HPC) 100 % of control | dose: 25.0 mg/kg/injection, schedule: Q01DX009 (ip), vehicle: Klucel (hydroxypropylcellulose) (HPC) 102 % of control | dose: 50.0 mg/kg/injection, schedule: Q01DX009 (ip), vehicle: Klucel (hydroxypropylcellulose) (HPC) 102 % of control | [9] 105 % of control

O=[N+]([O-])c1ccc(/C=C/c2ccccc2Cl)cc1
inactive: [3] 97 % of control | [8] 109 % of control | [5] 97 % of control | [9] 104 % of control | [6] 101 % of control | [10] 107 % of control
